Values joined by “and” are separate entries in the source; they are usually repeats but may differ in a detail not shown here. Equal entries are not always repeated. Where two headings read alike, the source gives them in different places.
Columns and labels:
FGFR1 = molecular target: T1, FGFR1 (Homo sapiens, UniProt P11362); experiment: HotSpot kinase screen; format: biochemical; settings: 10μM ATP
T1 construct: purchased Reaction Biology Corporation (contract assay)

VEGFR2 = molecular target: T2, VEGFR2 (Homo sapiens, UniProt P35968); experiment: HotSpot kinase screen; format: biochemical; settings: 10μM ATP
T2 construct: purchased Millipore Corporation (Dundee, Scotland) or Reaction Biology Corporation (contract assay)
T2 sequence (P35968 20-1356): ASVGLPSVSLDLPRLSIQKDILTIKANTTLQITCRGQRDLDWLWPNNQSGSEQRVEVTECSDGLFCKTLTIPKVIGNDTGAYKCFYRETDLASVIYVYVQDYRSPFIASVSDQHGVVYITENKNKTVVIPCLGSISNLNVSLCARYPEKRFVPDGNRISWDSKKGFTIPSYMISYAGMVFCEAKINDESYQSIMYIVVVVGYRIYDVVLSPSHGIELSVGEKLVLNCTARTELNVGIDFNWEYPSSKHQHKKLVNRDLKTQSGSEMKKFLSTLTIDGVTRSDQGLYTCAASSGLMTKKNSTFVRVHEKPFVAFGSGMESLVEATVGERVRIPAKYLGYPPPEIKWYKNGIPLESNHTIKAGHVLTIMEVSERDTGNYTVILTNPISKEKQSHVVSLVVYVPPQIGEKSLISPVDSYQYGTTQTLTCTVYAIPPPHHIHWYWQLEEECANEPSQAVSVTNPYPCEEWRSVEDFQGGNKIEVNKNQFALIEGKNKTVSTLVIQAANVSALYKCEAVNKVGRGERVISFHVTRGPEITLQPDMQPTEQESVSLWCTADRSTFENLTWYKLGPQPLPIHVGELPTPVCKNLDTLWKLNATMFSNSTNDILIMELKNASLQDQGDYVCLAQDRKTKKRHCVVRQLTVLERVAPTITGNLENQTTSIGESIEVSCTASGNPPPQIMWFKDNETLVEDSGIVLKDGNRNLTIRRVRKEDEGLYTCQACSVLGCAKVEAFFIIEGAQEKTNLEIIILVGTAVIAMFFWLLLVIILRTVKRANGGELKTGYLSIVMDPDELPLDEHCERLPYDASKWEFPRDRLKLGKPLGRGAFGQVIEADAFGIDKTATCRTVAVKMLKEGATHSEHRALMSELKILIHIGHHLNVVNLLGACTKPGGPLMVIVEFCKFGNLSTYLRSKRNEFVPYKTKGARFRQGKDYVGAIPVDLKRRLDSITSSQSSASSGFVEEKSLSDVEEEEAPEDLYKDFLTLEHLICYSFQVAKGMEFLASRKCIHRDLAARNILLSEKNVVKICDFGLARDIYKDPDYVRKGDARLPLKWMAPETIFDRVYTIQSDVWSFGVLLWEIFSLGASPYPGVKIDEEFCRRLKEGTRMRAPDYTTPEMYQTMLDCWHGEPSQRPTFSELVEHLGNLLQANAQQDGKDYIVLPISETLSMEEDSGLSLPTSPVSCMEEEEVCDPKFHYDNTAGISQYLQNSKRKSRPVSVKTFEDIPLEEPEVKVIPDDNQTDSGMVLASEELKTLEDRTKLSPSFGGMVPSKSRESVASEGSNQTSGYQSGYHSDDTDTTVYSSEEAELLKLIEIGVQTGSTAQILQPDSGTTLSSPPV

[1] = 634 ug, cited from earlier work
synthetic melanin = experiment: in vitro
TIE2 = TIE2 (Homo sapiens, UniProt Q02763); experiment: HotSpot kinase screen; format: biochemical; set-up: purchased Reaction Biology Corporation (contract assay); settings: 10μM ATP
Chain of TIE2 (Q02763 23-1124): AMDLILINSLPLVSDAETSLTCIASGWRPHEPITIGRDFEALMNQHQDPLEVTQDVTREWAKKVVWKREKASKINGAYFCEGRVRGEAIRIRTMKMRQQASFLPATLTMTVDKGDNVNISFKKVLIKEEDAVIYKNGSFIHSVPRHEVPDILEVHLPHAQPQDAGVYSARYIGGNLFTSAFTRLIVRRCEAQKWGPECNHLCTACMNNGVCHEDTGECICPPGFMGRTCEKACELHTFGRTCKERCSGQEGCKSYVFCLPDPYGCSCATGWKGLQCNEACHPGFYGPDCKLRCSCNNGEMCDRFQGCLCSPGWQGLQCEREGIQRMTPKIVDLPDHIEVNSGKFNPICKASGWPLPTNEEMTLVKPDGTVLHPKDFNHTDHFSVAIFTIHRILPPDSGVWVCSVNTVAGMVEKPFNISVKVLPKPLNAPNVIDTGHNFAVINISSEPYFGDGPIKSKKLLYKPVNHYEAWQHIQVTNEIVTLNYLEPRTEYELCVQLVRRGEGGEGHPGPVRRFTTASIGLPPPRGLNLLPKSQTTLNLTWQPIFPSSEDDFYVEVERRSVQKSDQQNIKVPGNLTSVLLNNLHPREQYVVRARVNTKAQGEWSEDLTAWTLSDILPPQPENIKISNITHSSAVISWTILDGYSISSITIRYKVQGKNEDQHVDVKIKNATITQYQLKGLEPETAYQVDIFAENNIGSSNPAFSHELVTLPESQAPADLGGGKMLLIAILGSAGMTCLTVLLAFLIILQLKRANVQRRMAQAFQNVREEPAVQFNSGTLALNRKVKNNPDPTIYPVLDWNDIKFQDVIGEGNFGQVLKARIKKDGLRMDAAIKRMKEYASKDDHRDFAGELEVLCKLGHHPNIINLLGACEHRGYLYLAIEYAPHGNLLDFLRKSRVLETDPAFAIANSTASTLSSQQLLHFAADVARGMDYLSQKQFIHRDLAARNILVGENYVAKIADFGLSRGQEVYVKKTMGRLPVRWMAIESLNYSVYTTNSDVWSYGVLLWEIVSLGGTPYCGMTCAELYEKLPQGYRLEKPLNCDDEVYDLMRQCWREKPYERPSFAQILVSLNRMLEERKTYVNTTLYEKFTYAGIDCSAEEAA

[2] = system: VEGF-induced angiogenesis on the CAM; experiment: Gelatin sponge chick chorioallantoic membrane (CAM) assay
VEGFR1 = VEGFR1 (Homo sapiens, UniProt P17948); experiment: HotSpot kinase screen; format: biochemical; set-up: purchased Millipore Corporation (Dundee, Scotland) or Reaction Biology Corporation (contract assay); settings: 10μM ATP
Chain of VEGFR1 (P17948 27-1338): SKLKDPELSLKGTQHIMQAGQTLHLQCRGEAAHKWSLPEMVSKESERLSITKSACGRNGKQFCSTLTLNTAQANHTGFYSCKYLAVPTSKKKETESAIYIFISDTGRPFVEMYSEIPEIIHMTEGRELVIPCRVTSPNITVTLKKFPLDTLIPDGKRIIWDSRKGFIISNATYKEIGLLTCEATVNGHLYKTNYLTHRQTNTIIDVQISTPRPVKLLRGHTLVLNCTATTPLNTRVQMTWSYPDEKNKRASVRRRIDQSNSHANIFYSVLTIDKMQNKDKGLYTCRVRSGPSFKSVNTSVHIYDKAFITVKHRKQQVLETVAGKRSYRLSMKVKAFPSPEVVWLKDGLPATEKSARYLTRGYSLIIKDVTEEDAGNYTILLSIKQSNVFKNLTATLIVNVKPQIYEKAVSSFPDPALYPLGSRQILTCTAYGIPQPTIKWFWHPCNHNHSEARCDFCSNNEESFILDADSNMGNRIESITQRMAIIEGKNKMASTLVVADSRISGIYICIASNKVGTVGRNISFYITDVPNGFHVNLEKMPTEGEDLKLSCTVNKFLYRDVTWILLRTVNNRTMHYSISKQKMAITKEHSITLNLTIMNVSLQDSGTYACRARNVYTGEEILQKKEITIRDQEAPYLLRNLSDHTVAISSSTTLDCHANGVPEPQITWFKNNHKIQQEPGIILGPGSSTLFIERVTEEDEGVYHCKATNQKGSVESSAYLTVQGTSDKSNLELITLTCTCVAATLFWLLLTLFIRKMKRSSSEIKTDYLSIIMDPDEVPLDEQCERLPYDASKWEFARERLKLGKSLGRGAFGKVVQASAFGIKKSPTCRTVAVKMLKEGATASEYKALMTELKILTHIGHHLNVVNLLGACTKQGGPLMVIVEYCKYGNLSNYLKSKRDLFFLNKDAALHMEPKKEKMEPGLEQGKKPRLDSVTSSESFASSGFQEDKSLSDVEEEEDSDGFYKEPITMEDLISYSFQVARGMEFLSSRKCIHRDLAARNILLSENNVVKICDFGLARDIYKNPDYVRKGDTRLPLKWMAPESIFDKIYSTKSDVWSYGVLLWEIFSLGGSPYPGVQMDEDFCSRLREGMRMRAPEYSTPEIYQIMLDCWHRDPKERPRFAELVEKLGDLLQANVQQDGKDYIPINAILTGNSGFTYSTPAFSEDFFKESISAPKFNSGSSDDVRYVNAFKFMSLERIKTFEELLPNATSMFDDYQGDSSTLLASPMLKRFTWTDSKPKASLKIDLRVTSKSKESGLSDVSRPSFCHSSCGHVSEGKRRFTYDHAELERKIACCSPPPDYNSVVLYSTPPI
Description: Measurement of kinase activity was performed by Reaction Biology Corporation (Reaction Biology Corporation, Malvern, PA), using the HotSpot™ assay. The screen focused on RTKs reported in the literature to play a major role in the regulation of angiogenesis (VEGFR1, VEGFR2, and VEGFR3; fibroblast growth factor receptor [FGFR] 1, 2, and 3; and platelet-derived growth factor receptor beta [PDGFRβ]) as well as an RTK essential for maintaining blood vessel stability (TIE2). For the profiling, specific kinase/substrate pairs and required cofactors were prepared in a reaction buffer (20mM Hepes [pH 7.5], 10mM MgCl2, 1mM EGTA, 0.02% Brij35, 0.02 mg/mL BSA, 0.1mM Na3VO4, 2mM DTT, 1% dimethyl sulfoxide [DMSO]). TKI compounds were diluted to 10μM and 1μM concentrations for the screens and after addition to the reaction buffer incubated for 20 minutes, followed by the addition of a mixture of ATP (Sigma, St. Louis, MO) and ^33P-ATP (Perkin Elmer, Waltham, MA) to a final ATP concentration of 10μM. Reactions were carried out at room temperature for 2 hours, followed by spotting of the reactions onto P81 ion exchange filter paper (Whatman Inc., Piscataway, NJ). Unbound phosphate was removed by extensive washing of the filters. […] Kinome TREEspot images representing levels of inhibition were prepared using Kinome Mapper (https://www.reactionbiology.com/resources/tools/kinase-mapper).

T1 sequence (P11362 22-822): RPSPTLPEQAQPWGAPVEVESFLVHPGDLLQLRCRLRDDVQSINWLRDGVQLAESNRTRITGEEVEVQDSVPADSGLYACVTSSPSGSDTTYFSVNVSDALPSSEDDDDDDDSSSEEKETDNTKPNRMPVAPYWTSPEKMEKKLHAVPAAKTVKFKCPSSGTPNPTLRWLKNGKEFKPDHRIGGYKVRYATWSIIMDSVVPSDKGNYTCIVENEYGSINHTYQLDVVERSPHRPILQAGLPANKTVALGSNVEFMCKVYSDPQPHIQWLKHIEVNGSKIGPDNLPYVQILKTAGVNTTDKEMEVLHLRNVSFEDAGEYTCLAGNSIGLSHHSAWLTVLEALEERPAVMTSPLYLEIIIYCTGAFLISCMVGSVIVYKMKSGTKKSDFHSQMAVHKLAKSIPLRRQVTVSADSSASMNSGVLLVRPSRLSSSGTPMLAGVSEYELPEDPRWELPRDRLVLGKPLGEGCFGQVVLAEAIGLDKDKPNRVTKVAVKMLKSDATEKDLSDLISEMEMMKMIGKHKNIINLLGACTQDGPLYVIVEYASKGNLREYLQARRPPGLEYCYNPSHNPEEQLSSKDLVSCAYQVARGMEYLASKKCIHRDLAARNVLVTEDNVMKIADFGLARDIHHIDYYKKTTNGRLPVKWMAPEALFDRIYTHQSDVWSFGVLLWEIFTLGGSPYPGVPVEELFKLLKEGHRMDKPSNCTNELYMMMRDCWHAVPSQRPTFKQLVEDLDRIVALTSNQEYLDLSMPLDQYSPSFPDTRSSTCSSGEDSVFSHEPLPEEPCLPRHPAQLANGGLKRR

Cc1[nH]c(/C=C2\C(=O)Nc3ccc(F)cc32)c(C)c1C(=O)N[C@H]1CCN(C(=O)N(C)C)C1 [Vorolanib]
Avg % Inhibition FGFR1 (FGFR1; 1uM TKI): 28.53%
Avg % Inhibition FGFR1 (FGFR1; 10uM TKI): 65.32%
Avg % Inhibition VEGFR2 (VEGFR2; 1uM TKI): 74.78%
Avg % Inhibition VEGFR2 (VEGFR2; 10uM TKI): 86.6%
Concentration, choroid ([1]; 2 days post-treatment): 124 µg/g
Concentration, choroid ([1]; 14 days post-treatment): 52 µg/g
Concentration, choroid ([1]; 29 days post-treatment): 74 µg/g
Concentration, choroid ([1]; 62 days post-treatment): 206 µg/g
Concentration, choroid ([1]; 120 days post-treatment): 109 µg/g
Concentration, choroid ([1]; 182 days post-treatment): 200 µg/g
Concentration, choroid ([1]; 240 days post-treatment): 293 µg/g
Concentration, retina ([1]; 2 days post-treatment): 208.6 µg/g
Concentration, retina ([1]; 14 days post-treatment): 223.3 µg/g
Concentration, retina ([1]; 29 days post-treatment): 143.1 µg/g
Concentration, retina ([1]; 62 days post-treatment): 136.3 µg/g
Concentration, retina ([1]; 120 days post-treatment): 434.5 µg/g
Concentration, retina ([1]; 182 days post-treatment): 243.2 µg/g
Concentration, retina ([1]; 240 days post-treatment): 122.5 µg/g
fraction unbound at 1 h (synthetic melanin): 0.857
Avg % Inhibition TIE2 (TIE2; 1uM TKI): 4.09%
Avg % Inhibition TIE2 (TIE2; 1uM TKI, listed as vorolanib): 4%
Avg % Inhibition TIE2 (TIE2; 10uM TKI): 21.27%
Avg % Inhibition TIE2 (TIE2; 10uM TKI, listed as vorolanib): 21%
Angiogenesis - Vessel number, Mean ([2]; TKI at 200 x VEGFR2 IC50): 8.7
Angiogenesis - Vessel number, individual egg ([2]; TKI at 200 x VEGFR2 IC50, one value per egg): 1.33 and 10.33 and 14 and 8.33 and 9.33 and 9
reduction of the number of blood vessels perfusing the sponges vs negative control ([2]; TKI at 200× VEGFR2 IC50 dose): 37.1%
reduction of the number of blood vessels perfusing the sponges vs negative control ([2]; TKI at VEGFR2 IC50 dose): 39.9%
Angiogenesis - Vessel thickness score, Mean ([2]; TKI at VEGFR2 IC50 dose, score 0-3): 1.2
Angiogenesis - Vessel thickness score, individual egg ([2]; TKI at VEGFR2 IC50 dose, score 0-3, one value per egg): 0 and 1.67 and 1.33 and 1 and 0.67 and 2.33
Avg % Inhibition VEGFR1 (VEGFR1; 1uM TKI): 54.61%
Avg % Inhibition VEGFR1 (VEGFR1; 10uM TKI): 77.43%
